Measured values published in patent publication EP2961788B1, “NANOPARTICLES STABILIZED WITH NITROPHENYLBORONIC ACID COMPOSITIONS” (priority 2013, dated 2014).
Where two headings read alike, the source gives them in different places.

System: BT-474 xenograft tumors
Description: Treatments began on day 1. […] All treatments were freshly prepared and given via intravenous tail vein injection. Injections were standardized at 150 µl per 20 g body weight of mice. […] Tumor sizes were recorded three times a week using caliper measurements (length x width^2/2) and health of the animals was continuously monitored. Animals were euthanized when tumor volumes exceeded 1000 mm^3. Six weeks after beginning of the treatment, animals were euthanized by CO2 asphyxiation.

[1] = 8 mg/kg, once per week for 3 weeks
[2] = 80 mg/kg, once per week for 3 weeks

Compound | Nend (number of animals surviving to end of study) (8 mg/kg (MAP-CPT: CPT basis), i.v. once per week for 3 weeks) | NTRD (number of treatment related death) [1] | Nreg to zero [1] | tumor inhibition compared to control group [1] | NTRD (number of treatment related death) [2] | Neuthan (number of animals euthanized due to exceeding tumor size limit of 1000 mm^3) [2] | Nreg to zero [2] | tumor inhibition compared to control group [2]
CC[C@@]1(O)C(=O)OCc2c1cc1n(c2=O)Cc2cc3ccccc3nc2-1 [CPT, Camptothecin] | 8/0 | 4 | 0 | no tumor inhibition |  |  |  | 
CCc1c2c(nc3ccc(OC(=O)N4CCC(N5CCCCC5)CC4)cc13)-c1cc3c(c(=O)n1C2)COC(=O)[C@]3(O)CC [Irinotecan] |  |  |  |  | 1 | 0 | 0 | non-significant tumor inhibition
